Assay results: PubChem BioAssay AID330 (DTP/NCI, 2004)
“And” between values parts separate entries of the source, which are not always exact repeats. Equal values may be shown once. Toxic doses and inconclusive results are not listed. Bridge positions count the residues as written; N and C are the ends. Square brackets hold non-standard residues; d marks the D form. Peptide text beside a SMILES is read from it. NMeV = CN[CH](C(=O)O)C(C)C; Sar = CNCC(=O)O

Tested on: P388 leukemia ip, CD2F1 mice, survival T/C
Assay: NCI In Vivo Anticancer Drug Screen. Data for tumor model P388 Leukemia (intraperitoneal) in CD2F1 (CDF1) mice
Conditions: endpoint: median survival time, higher = longer survival
How it was run: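 Mice carrying the transplanted tumor received test compound or vehicle. Survival was recorded in each group, and the value is the treated-group measurement divided by that of the vehicle-treated control group.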

[1] = dose: 50.0 mg/kg/injection, schedule: Q01DX009 (ip), vehicle: saline with Tween-80
[2] = dose: 100.0 mg/kg/injection, schedule: Q01DX009 (ip), vehicle: saline with Tween-80
[3] = dose: 200.0 mg/kg/injection, schedule: Q01DX009 (ip), vehicle: saline with Tween-80
[4] = dose: 100.0 mg/kg/injection, schedule: Q01DX001 (ip), vehicle: saline with Tween-80
[5] = dose: 200.0 mg/kg/injection, schedule: Q01DX001 (ip), vehicle: saline with Tween-80
[6] = dose: 400.0 mg/kg/injection, schedule: Q01DX001 (ip), vehicle: saline with Tween-80
[7] = dose: 50.0 mg/kg/injection, schedule: Q01DX005 (ip), vehicle: Klucel (hydroxypropylcellulose) (HPC)
[8] = dose: 100.0 mg/kg/injection, schedule: Q01DX005 (ip), vehicle: Klucel (hydroxypropylcellulose) (HPC)
[9] = dose: 200.0 mg/kg/injection, schedule: Q01DX005 (ip), vehicle: Klucel (hydroxypropylcellulose) (HPC)
[10] = dose: 50.0 mg/kg/injection, schedule: Q01DX009 (ip), vehicle: Klucel (hydroxypropylcellulose) (HPC)
[11] = dose: 100.0 mg/kg/injection, schedule: Q01DX009 (ip), vehicle: Klucel (hydroxypropylcellulose) (HPC)
[12] = dose: 200.0 mg/kg/injection, schedule: Q01DX009 (ip), vehicle: Klucel (hydroxypropylcellulose) (HPC)
[13] = dose: 60.0 mg/kg/injection, schedule: Q01DX005 (ip), vehicle: saline with Tween-80
[14] = dose: 120.0 mg/kg/injection, schedule: Q01DX005 (ip), vehicle: saline with Tween-80
[15] = dose: 240.0 mg/kg/injection, schedule: Q01DX005 (ip), vehicle: saline with Tween-80

## CCCCCCCCCCCCCCCC[N+](C)(C)CCBr
dose: 3.13 mg/kg/injection, schedule: Q01DX009 (ip), vehicle: saline with Tween-80
  T/C: 109 % of control and 100 % of control
dose: 6.25 mg/kg/injection, schedule: Q01DX009 (ip), vehicle: saline with Tween-80
  T/C: 122 % of control and 93 % of control and 103 % of control
dose: 12.5 mg/kg/injection, schedule: Q01DX009 (ip), vehicle: saline with Tween-80
  T/C: 115 % of control [middle of 4 runs]

## CNC(=O)CCCCC(=O)NC
[1]
  T/C: 96 % of control
[2]
  T/C: 104 % of control
[3]
  T/C: 114 % of control
dose: 400.0 mg/kg/injection, schedule: Q01DX009 (ip), vehicle: saline with Tween-80
  T/C: 96 % of control

## CC(=O)CC(C)=O.CC(=O)CC(C)=O.CCCn1ccnc1.O=N[O-].[Co]
dose: 50.0 mg/kg/injection, schedule: Q01DX001 (ip), vehicle: saline with Tween-80
  T/C: 95 % of control
[4]
  T/C: 101 % of control and 93 % of control
[5]
  T/C: 99 % of control and 120 % of control
[6]
  T/C: 108 % of control

## Cc1cnc(NCCCNc2ncc(C)c(-c3ccccc3O)n2)nc1-c1ccccc1O
[7]
  T/C: 88 % of control
[8]
  T/C: 86 % of control
[9]
  T/C: 92 % of control

## CN1CC2Cc3ccc(O)cc3C(C)(C2)C1 (configuration not stated)
dose: 12.5 mg/kg/injection, schedule: Q01DX009 (ip), vehicle: saline
  T/C: 98 % of control
dose: 25.0 mg/kg/injection, schedule: Q01DX009 (ip), vehicle: saline
  T/C: 96 % of control
[1]
  T/C: 87 % of control
dose: 50.0 mg/kg/injection, schedule: Q01DX009 (ip), vehicle: saline
  T/C: 98 % of control

## O=C(CCCO)c1nc2ccccc2s1
dose: 60.0 mg/kg/injection, schedule: Q01DX005 (ip), vehicle: Klucel (hydroxypropylcellulose) (HPC)
  T/C: 106 % of control
dose: 120.0 mg/kg/injection, schedule: Q01DX005 (ip), vehicle: Klucel (hydroxypropylcellulose) (HPC)
  T/C: 101 % of control
dose: 240.0 mg/kg/injection, schedule: Q01DX005 (ip), vehicle: Klucel (hydroxypropylcellulose) (HPC)
  T/C: 100 % of control

## CS(=O)(=O)OCCN(CCOS(C)(=O)=O)c1ccc([N+](=O)[O-])cc1[N+](=O)[O-]
dose: 100.0 mg/kg/injection, schedule: Q01DX001 (ip), vehicle: Klucel (hydroxypropylcellulose) (HPC)
  T/C: 88 % of control
dose: 200.0 mg/kg/injection, schedule: Q01DX001 (ip), vehicle: Klucel (hydroxypropylcellulose) (HPC)
  T/C: 100 % of control
dose: 400.0 mg/kg/injection, schedule: Q01DX001 (ip), vehicle: Klucel (hydroxypropylcellulose) (HPC)
  T/C: 103 % of control

## ClCC1CSC(c2ccc3c(c2)OCO3)O1 (configuration not stated)
[1]
  T/C: 101 % of control and 96 % of control
[2]
  T/C: 121 % of control and 91 % of control
[3]
  T/C: 98 % of control

## COC1/C=C\OC2(C)Oc3c(C)c(O)c4c(O)c(c5sc(N)nc5c4c3C2=O)NC(=O)/C(C)=C\C=C\C(C)C(O)C(C)C(O)C(C)C(OC(C)=O)C1C (configuration not stated)
dose: 25.0 mg/kg/injection, schedule: Q01DX009 (ip), vehicle: Klucel (hydroxypropylcellulose) (HPC)
  T/C: 100 % of control
[10]
  T/C: 102 % of control
[11]
  T/C: 100 % of control
[12]
  T/C: 100 % of control

## O=C1Nc2ccccc2C1NC(=S)Nc1ccccc1 (configuration not stated)
[13]
  T/C: 96 % of control
[14]
  T/C: 94 % of control

## OCc1ccccc1
dose: 0.12 % in 0.5 ml injection vol, schedule: Q01DX009 (ip), vehicle: water
  T/C: 94 % of control
dose: 0.25 % in 0.5 ml injection vol, schedule: Q01DX009 (ip), vehicle: water
  T/C: 94 % of control
dose: 0.5 % in 0.5 ml injection vol, schedule: Q01DX009 (ip), vehicle: water
  T/C: 100 % of control and 103 % of control
dose: 1.0 % in 0.5 ml injection vol, schedule: Q01DX009 (ip), vehicle: water
  T/C: 95 % of control and 98 % of control
dose: 2.0 % in 0.5 ml injection vol, schedule: Q01DX009 (ip), vehicle: water
  T/C: 98 % of control

## O=C(/C=C/C=C/c1ccccc1)c1ccco1
[1]
  T/C: 94 % of control
[2]
  T/C: 94 % of control
[3]
  T/C: 99 % of control

## COC1C(C)OC(OC2CC(C)(O)Cc3cc4c(c(O)c32)C(=O)c2c(O)cc3c(c2C4=O)OC2OC3(C)C(O)C(N(C)C=O)C2O)C(OC)C1(C)OC (configuration not stated)
dose: 3.12 mg/kg/injection, schedule: Q04DX003 (ip), vehicle: other
  T/C: 100 % of control
dose: 6.25 mg/kg/injection, schedule: Q04DX003 (ip), vehicle: other
  T/C: 97 % of control
dose: 12.5 mg/kg/injection, schedule: Q04DX003 (ip), vehicle: other
  T/C: 94 % of control
dose: 25.0 mg/kg/injection, schedule: Q04DX003 (ip), vehicle: other
  T/C: 91 % of control
dose: 50.0 mg/kg/injection, schedule: Q04DX003 (ip), vehicle: other
  T/C: 95 % of control

## CS(C)(=O)=Nc1ccc(F)cc1
[4]
  T/C: 99 % of control
[5]
  T/C: 99 % of control
[6]
  T/C: 99 % of control

## Cc1nc2ccccc2nc1N
[13]
  T/C: 94 % of control
[14]
  T/C: 98 % of control
[15]
  T/C: 98 % of control

## COC(=O)CC1C(C)(C)C(=O)C2CC3=C4CC(=O)OC(c5ccoc5)C4(C)CCC3C1(C)C2=O (configuration not stated)
[13]
  T/C: 97 % of control
[14]
  T/C: 92 % of control
[15]
  T/C: 89 % of control

## O=C(O)c1ccccc1SSc1ccccc1C(=O)O
[10]
  T/C: 96 % of control
[11]
  T/C: 102 % of control

## CSc1ccnc2cc(Cl)ccc12
[7]
  T/C: 96 % of control
[8]
  T/C: 106 % of control
[9]
  T/C: 110 % of control

## CCn1c2ccccc2c2cc(NS(=O)(=O)c3ccccc3)ccc21
[10]
  T/C: 103 % of control
[11]
  T/C: 103 % of control
[12]
  T/C: 100 % of control

## CC(N)CC(N)CC(=O)O (configuration not stated)
dose: 60.0 mg/kg/injection, schedule: Q01DX005 (ip), vehicle: saline
  T/C: 100 % of control and 99 % of control
dose: 120.0 mg/kg/injection, schedule: Q01DX005 (ip), vehicle: saline
  T/C: 102 % of control and 100 % of control
dose: 240.0 mg/kg/injection, schedule: Q01DX005 (ip), vehicle: saline
  T/C: 90 % of control and 91 % of control

## O=C1CC(=P(c2ccccc2)(c2ccccc2)c2ccccc2)C(=O)O1
dose: 50.0 mg/kg/injection, schedule: Q04DX003 (ip), vehicle: saline
  T/C: 102 % of control
dose: 100.0 mg/kg/injection, schedule: Q04DX003 (ip), vehicle: saline
  T/C: 100 % of control
dose: 200.0 mg/kg/injection, schedule: Q04DX003 (ip), vehicle: saline
  T/C: 109 % of control
dose: 400.0 mg/kg/injection, schedule: Q04DX003 (ip), vehicle: saline
  T/C: 106 % of control

## N#Cc1ccc(-c2nn[nH]n2)cc1
[7]
  T/C: 102 % of control
[8]
  T/C: 95 % of control
[9]
  T/C: 96 % of control

## COc1ccc2c(c1OC)C(CC(=O)O)N1CCc3cc4c(cc3C1C2)OCO4 (configuration not stated)
dose: 0.63 mg/kg/injection, schedule: Q01DX009 (ip), vehicle: distilled water + Tween-80
  T/C: 103 % of control
dose: 1.25 mg/kg/injection, schedule: Q01DX009 (ip), vehicle: distilled water + Tween-80
  T/C: 99 % of control
dose: 2.5 mg/kg/injection, schedule: Q01DX009 (ip), vehicle: distilled water + Tween-80
  T/C: 106 % of control
dose: 5.0 mg/kg/injection, schedule: Q01DX009 (ip), vehicle: distilled water + Tween-80
  T/C: 101 % of control
dose: 10.0 mg/kg/injection, schedule: Q01DX009 (ip), vehicle: distilled water + Tween-80
  T/C: 106 % of control
dose: 20.0 mg/kg/injection, schedule: Q01DX009 (ip), vehicle: distilled water + Tween-80
  T/C: 94 % of control

## CC(C)C1NC(=O)C(N)C(C)OC(=O)C(C(C)C)N(C)C(=O)CN(C)C(=O)C2CCCN2C1=O (configuration not stated) (tested in a mixture with another compound) (H-TVP[Sar][NMeV]; ester 1-C; configuration not given here)
dose: 15.0 micrograms/kg/injection, schedule: Q01DX009 (ip), vehicle: water
  T/C: 163 % of control
dose: 31.0 micrograms/kg/injection, schedule: Q01DX009 (ip), vehicle: water
  T/C: 159 % of control
dose: 62.0 micrograms/kg/injection, schedule: Q01DX009 (ip), vehicle: water
  T/C: 164 % of control
dose: 110.0 micrograms/kg/injection, schedule: Q01DX009 (ip), vehicle: other
  T/C: 200 % of control
dose: 125.0 micrograms/kg/injection, schedule: Q01DX009 (ip), vehicle: water
  T/C: 179 % of control
dose: 165.0 micrograms/kg/injection, schedule: Q01DX009 (ip), vehicle: other
  T/C: 254 % of control
dose: 250.0 micrograms/kg/injection, schedule: Q01DX009 (ip), vehicle: other
  T/C: 180 % of control
dose: 250.0 micrograms/kg/injection, schedule: Q01DX009 (ip), vehicle: water
  T/C: 225 % of control
